What all share (format): in vivo
Experiment [1] has as its system Rox orange sorghum (Sorghum bicolor). As to the kind of experiment: Postemergence herbicidal activity. The conditions noted are these: scored after 2 weeks, 0 no injury, 100 complete kill. A digest of the protocol: (§1)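 Visual injury rating (0 = no injury, 100% = complete kill) taken 2 weeks post-application relative to untreated controls. Compounds applied as foliar spray in an acetone/DMSO-based aqueous carrier with crop oil and surfactant to plants at first or second true leaf stage; 1 ppm corresponds to about 1 g/ha.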

Experiment [2] concerns blackgrass (Alopecurus myosuroides). In words: Postemergence herbicidal activity. The conditions noted are these: scored after 2 weeks, 0 no injury, 100 complete kill. A digest of the protocol: as §1
Experiment [3] has as its system chickweed (Stellaria media). In words: Postemergence herbicidal activity. The settings on record: scored after 2 weeks, 0 no injury, 100 complete kill. A digest of the protocol: as §1
For experiment [4], the system named is cocklebur (Xanthium strumarium). In words: Postemergence herbicidal activity. The settings on record: scored after 2 weeks, 0 no injury, 100 complete kill. Summed up: as §1
The subject of experiment [5] is giant foxtail (Setaria faberi). As to the kind of experiment: Postemergence herbicidal activity. The conditions noted are these: scored after 2 weeks, 0 no injury, 100 complete kill. Summed up: as §1
The subject of experiment [6] is lambsquarters (Chenopodium album). In words: Postemergence herbicidal activity. The conditions noted are these: scored after 2 weeks, 0 no injury, 100 complete kill. Summed up:
as §1

Experiment [7] deals with morningglory (Ipomoea hederacea). As to the kind of experiment: Postemergence herbicidal activity. The settings on record: scored after 2 weeks, 0 no injury, 100 complete kill. A digest of the protocol:
as §1

Experiment [8] deals with pigweed (Amaranthus retroflexus). In words: Postemergence herbicidal activity. The conditions noted are these: scored after 2 weeks, 0 no injury, 100 complete kill. A digest of the protocol: as §1
For experiment [9], the system named is velvetleaf (Abutilion theophrasti). In words: Postemergence herbicidal activity. The settings on record: scored after 2 weeks, 0 no injury, 100 complete kill. Summed up:
as §1

The subject of experiment [10] is viola (Viola tricolor). In words: Postemergence herbicidal activity. The settings on record: scored after 2 weeks, 0 no injury, 100 complete kill. A digest of the protocol:
as §1

Experiment [11] relates to wild buckwheat (Polygonum convolvulus). In words: Postemergence herbicidal activity. The settings on record: scored after 2 weeks, 0 no injury, 100 complete kill. A digest of the protocol:
as §1

Experiment [12] deals with wild oats (Avena fatua). As to the kind of experiment: Postemergence herbicidal activity. The settings on record: scored after 2 weeks, 0 no injury, 100 complete kill. Summed up:
as §1

Experiment [13] has as its system Rox orange sorghum (Sorghum bicolor). As to the kind of experiment: Preemergence herbicidal activity. The settings on record: scored after 3 weeks, 0 no injury, 100 complete kill or no germination. Summed up: (§2)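 Visual rating 3 weeks after treatment, 0-100% injury versus untreated pots, where 100 means complete kill or no germination. Soil of seeded pots was sprayed preemergence with aqueous Tween 155 dilutions of acetone/DMSO stocks, up to 4.48 kg/ha. Plants were grown in a greenhouse at about 23-29 °C day/22-28 °C night with ~15 h light.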

Experiment [14] relates to barnyardgrass (Echinochloa crus-galli). In words: Preemergence herbicidal activity. The settings on record: scored after 3 weeks, 0 no injury, 100 complete kill or no germination. A digest of the protocol: as §2
In experiment [15] the test system is blackgrass (Alopecurus myosuroides). In words: Preemergence herbicidal activity. The conditions noted are these: scored after 3 weeks, 0 no injury, 100 complete kill or no germination. Summed up:
as §2

Experiment [16] deals with cocklebur (Xanthium strumarium). In words: Preemergence herbicidal activity. The settings on record: scored after 3 weeks, 0 no injury, 100 complete kill or no germination. Summed up: as §2
The test system of experiment [17] is crabgrass (Digitaria sanguinalis). In words: Preemergence herbicidal activity. The conditions noted are these: scored after 3 weeks, 0 no injury, 100 complete kill or no germination. A digest of the protocol: as §2
Experiment [18] relates to giant foxtail (Setaria faberi). In words: Preemergence herbicidal activity. The settings on record: scored after 3 weeks, 0 no injury, 100 complete kill or no germination. A digest of the protocol: as §2
The subject of experiment [19] is lambsquarters (Chenopodium album). As to the kind of experiment: Preemergence herbicidal activity. The settings on record: scored after 3 weeks, 0 no injury, 100 complete kill or no germination. Summed up: as §2
The test system of experiment [20] is morningglory (Ipomoea hederacea). As to the kind of experiment: Preemergence herbicidal activity. The settings on record: scored after 3 weeks, 0 no injury, 100 complete kill or no germination. Summed up:
as §2

Experiment [21] relates to pigweed (Amaranthus retroflexus). In words: Preemergence herbicidal activity. The settings on record: scored after 3 weeks, 0 no injury, 100 complete kill or no germination. Summed up:
as §2

Experiment [22] has as its system velvetleaf (Abutilion theophrasti). As to the kind of experiment: Preemergence herbicidal activity. The conditions noted are these: scored after 3 weeks, 0 no injury, 100 complete kill or no germination. Summed up:
as §2

In experiment [23] the test system is wild oats (Avena fatua). As to the kind of experiment: Preemergence herbicidal activity. The conditions noted are these: scored after 3 weeks, 0 no injury, 100 complete kill or no germination. Summed up: as §2
In experiment [24] the test system is wild poinsettia (Euphorbia heterophylla). As to the kind of experiment: Preemergence herbicidal activity. The conditions noted are these: scored after 3 weeks, 0 no injury, 100 complete kill or no germination. Summed up:
as §2

With `COc1cc(OC)n2nc(NS(=O)(=O)c3c(C(F)(F)F)ccnc3F)nc2n1` [Compound 16], the “Postemergence herbicidal activity SORBI” value in experiment [1] (125 ppm) turned out to be 50%. Also, the “Postemergence herbicidal activity ALOMY” value in experiment [2] (125 ppm) was determined as 60%. Further, the “Postemergence herbicidal activity STEME” value in experiment [3] (125 ppm) came out at 60%. Moreover, the “Postemergence herbicidal activity XANST” value in experiment [4] (125 ppm) is reported as 0%. Further, the “Postemergence herbicidal activity SETFA” value in experiment [5] (125 ppm) is given as 75%. For the same compound, in [6] (125 ppm), the “Postemergence herbicidal activity CHEAL” value came out at 40%. The “Postemergence herbicidal activity IPOHE” value in experiment [7] (125 ppm) amounted to 20%. Moreover, the “Postemergence herbicidal activity AMARE” value in experiment [8] (125 ppm) is reported as 75%. For the same compound, in experiment [9] (125 ppm), the “Postemergence herbicidal activity ABUTH” value came out at 10%. Further, the “Postemergence herbicidal activity VIOTR” value in experiment [10] (125 ppm) was 50%. For the same compound, the “Postemergence herbicidal activity POLCO” value in experiment [11] (125 ppm) turned out to be 20%. Besides, in [12] (125 ppm), the “Postemergence herbicidal activity AVEFA” value is 50%. Also, in experiment [13] (140 g/Ha), the “Preemergence herbicidal activity SORBI” value stood at 40%. Besides, the “Preemergence herbicidal activity ECHCG” value in [14] (140 g/Ha) came out at 0%. In experiment [15] (140 g/Ha), the “Preemergence herbicidal activity ALOMY” value was 40%. Also, the “Preemergence herbicidal activity XANST” value in experiment [16] (140 g/Ha) worked out at 40%. Further, the “Preemergence herbicidal activity DIGSA” value in experiment [17] (140 g/Ha) was found to be 0%. Moreover, the “Preemergence herbicidal activity SETFA” value in experiment [18] (140 g/Ha) is reported as 10%. In experiment [19] (140 g/Ha), the “Preemergence herbicidal activity CHEAL” value stood at 20%. For the same compound, in experiment [20] (140 g/Ha), the “Preemergence herbicidal activity IPOHE” value came out at 0%. For the same compound, the “Preemergence herbicidal activity AMARE” value in [21] (140 g/Ha) worked out at 85%. Moreover, the “Preemergence herbicidal activity ABUTH” value in experiment [22] (140 g/Ha) is on record as 20%. In addition, the “Preemergence herbicidal activity AVEFA” value in experiment [23] (140 g/Ha) is given as 30%. For the same compound, the “Preemergence herbicidal activity EPHHL” value in [24] (140 g/Ha) is recorded as 0%.

Consider `COc1cc(OC)n2nc(NS(=O)(=O)c3cc(Cl)ccc3OCCF)nc2n1` [Compound 13], for which the “Postemergence herbicidal activity SORBI” value in experiment [1] (31.3 ppm) came to 90%. For the same compound, in experiment [2] (31.3 ppm), the “Postemergence herbicidal activity ALOMY” value amounted to 85%. In [3] (31.3 ppm), the “Postemergence herbicidal activity STEME” value is 85%. Also, the “Postemergence herbicidal activity XANST” value in experiment [4] (31.3 ppm) was 90%. Besides, in experiment [5] (31.3 ppm), the “Postemergence herbicidal activity SETFA” value amounted to 90%. Moreover, the “Postemergence herbicidal activity CHEAL” value in [6] (31.3 ppm) came out at 70%. Further, the “Postemergence herbicidal activity IPOHE” value in experiment [7] (31.3 ppm) is recorded as 70%. For the same compound, the “Postemergence herbicidal activity AMARE” value in experiment [8] (31.3 ppm) was found to be 95%. For the same compound, the “Postemergence herbicidal activity ABUTH” value in [9] (31.3 ppm) worked out at 70%. Further, the “Postemergence herbicidal activity VIOTR” value in experiment [10] (31.3 ppm) worked out at 80%. Also, in experiment [11] (31.3 ppm), the “Postemergence herbicidal activity POLCO” value is 80%. In addition, the “Postemergence herbicidal activity AVEFA” value in [12] (31.3 ppm) is reported as 75%. The “Preemergence herbicidal activity SORBI” value in experiment [13] (35 g/Ha) is 95%. In [14] (35 g/Ha), the “Preemergence herbicidal activity ECHCG” value is reported as 80%. In experiment [15] (35 g/Ha), the “Preemergence herbicidal activity ALOMY” value stood at 95%. For the same compound, the “Preemergence herbicidal activity XANST” value in experiment [16] (35 g/Ha) is on record as 50%. Further, in [17] (35 g/Ha), the “Preemergence herbicidal activity DIGSA” value is 100%. Further, the “Preemergence herbicidal activity SETFA” value in [18] (35 g/Ha) worked out at 95%. The “Preemergence herbicidal activity CHEAL” value in experiment [19] (35 g/Ha) is recorded as 95%. Besides, in experiment [20] (35 g/Ha), the “Preemergence herbicidal activity IPOHE” value came out at 50%. Further, the “Preemergence herbicidal activity AMARE” value in experiment [21] (35 g/Ha) is given as 95%. The “Preemergence herbicidal activity ABUTH” value in experiment [22] (35 g/Ha) came out at 60%. In [23] (35 g/Ha), the “Preemergence herbicidal activity AVEFA” value stood at 85%. In addition, the “Preemergence herbicidal activity EPHHL” value in experiment [24] (35 g/Ha) turned out to be 50%.

In the case of `CCOc1cccc(C(F)(F)F)c1S(=O)(=O)Nc1nc2nc(OC)cc(OC)n2n1` [Compound 14, N-(5,7-dimethoxy[1,2,4]triazolo[1,5-a]-pyrimidin-2-yl)-2-ethoxy-6-(trifluoromethyl)benzenesulfonamide], the “Postemergence herbicidal activity SORBI” value in [1] (7.8 ppm) worked out at 70%. In experiment [2] (7.8 ppm), the “Postemergence herbicidal activity ALOMY” value turned out to be 70%. In addition, the “Postemergence herbicidal activity STEME” value in [3] (7.8 ppm) worked out at 98%. The “Postemergence herbicidal activity XANST” value in [4] (7.8 ppm) worked out at 100%. Moreover, the “Postemergence herbicidal activity SETFA” value in [5] (7.8 ppm) is 90%. For the same compound, in experiment [6] (7.8 ppm), the “Postemergence herbicidal activity CHEAL” value worked out at 100%. Moreover, in experiment [7] (7.8 ppm), the “Postemergence herbicidal activity IPOHE” value is on record as 80%. In experiment [8] (7.8 ppm), the “Postemergence herbicidal activity AMARE” value is 100%. Moreover, the “Postemergence herbicidal activity ABUTH” value in experiment [9] (7.8 ppm) amounted to 90%. Further, the “Postemergence herbicidal activity VIOTR” value in experiment [10] (7.8 ppm) was found to be 90%. Besides, the “Postemergence herbicidal activity POLCO” value in [11] (7.8 ppm) turned out to be 90%. Further, the “Postemergence herbicidal activity AVEFA” value in experiment [12] (7.8 ppm) came out at 50%. In [13] (17.5 g/Ha), the “Preemergence herbicidal activity SORBI” value worked out at 85%. In experiment [14] (17.5 g/Ha), the “Preemergence herbicidal activity ECHCG” value worked out at 80%. The “Preemergence herbicidal activity ALOMY” value in [15] (17.5 g/Ha) stood at 80%. Also, in experiment [16] (17.5 g/Ha), the “Preemergence herbicidal activity XANST” value is reported as 70%. Besides, the “Preemergence herbicidal activity DIGSA” value in experiment [17] (17.5 g/Ha) worked out at 80%. In addition, the “Preemergence herbicidal activity SETFA” value in [18] (17.5 g/Ha) was found to be 85%. In addition, the “Preemergence herbicidal activity CHEAL” value in [19] (17.5 g/Ha) came to 95%. In experiment [20] (17.5 g/Ha), the “Preemergence herbicidal activity IPOHE” value was found to be 75%. In addition, the “Preemergence herbicidal activity AMARE” value in experiment [21] (17.5 g/Ha) was determined as 95%. In addition, in [22] (17.5 g/Ha), the “Preemergence herbicidal activity ABUTH” value worked out at 85%. Also, in [23] (17.5 g/Ha), the “Preemergence herbicidal activity AVEFA” value stood at 60%. Further, the “Preemergence herbicidal activity EPHHL” value in experiment [24] (17.5 g/Ha) is 85%.

The values above are taken from US6559101B2, “N- (5, 7-dimethoxy [1, 2, 4] triazolo [1, 5-a] pyrimidin-2-yl) arylsulfonamide compounds and their use as herbicides” (Dow AgroSciences LLC, priority 2000, dated 2003).
